Test results reported in article PMC5728534 (PLoS ONE, 2017).

Legend:
OCT3 = molecular target: T1, OCT3 (Homo sapiens, UniProt O75751); experiment: Ranitidine uptake in HEK293 cells overexpressing OCT3; assay type: in vitro ADME
T1 construct: expressed in transfected cells; host or cells: HEK293 (Flp-In)
T1 sequence (O75751 1-556): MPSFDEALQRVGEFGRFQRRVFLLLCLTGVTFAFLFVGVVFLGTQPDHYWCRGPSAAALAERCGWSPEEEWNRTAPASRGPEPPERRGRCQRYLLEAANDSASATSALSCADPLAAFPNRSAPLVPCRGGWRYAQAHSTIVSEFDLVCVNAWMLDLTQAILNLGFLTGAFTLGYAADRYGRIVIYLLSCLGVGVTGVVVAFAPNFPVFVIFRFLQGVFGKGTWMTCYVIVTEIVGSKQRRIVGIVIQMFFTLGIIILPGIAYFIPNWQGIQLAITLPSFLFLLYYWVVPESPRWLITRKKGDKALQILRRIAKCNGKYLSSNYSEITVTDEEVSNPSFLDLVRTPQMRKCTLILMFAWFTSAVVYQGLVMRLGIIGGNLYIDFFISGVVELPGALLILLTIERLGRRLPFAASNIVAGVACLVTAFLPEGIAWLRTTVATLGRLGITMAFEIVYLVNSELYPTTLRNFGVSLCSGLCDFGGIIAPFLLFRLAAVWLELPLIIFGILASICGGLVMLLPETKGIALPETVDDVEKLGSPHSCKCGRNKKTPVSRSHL
Excerpt: HEK293 or CHO cells overexpressing the human OCT1 alleles *1A (characterized by the amino acid substitution Met408Val), *1B, *1C (Phe160Leu), *1D (Pro341Leu/Met408Val), *2 (Met420del), *3 (Arg61Cys), *4 (Gly401Ser), *5 (Gly465Arg/Met420del), *6 (Cys88Arg/Met420del), *7 (Ser14Phe), *8A (Arg488Met), *8B (Arg488Met/Met408Val), *9 (Pro117Leu), *10 (Ser189Leu), *11 (Ile449Thr), *12 (Ser29Leu), or *13 (Thr245Met), the human OCT2 reference and variant alleles (Ala270Ser), human OCT3, and the control cells (transfected with the empty pcDNA5 vector) were generated by targeted chromosomal integration using the Flp-In™ System (Life Technologies, Darmstadt, Germany).
Six hundred thousand HEK293 or CHO cells were plated per well in 12-well plates (pre-coated with poly-D-lysine) and were grown for 48 hours to reach confluence. Cells were kept at 37°C and 5% CO2 in DMEM (HEK293) or RPMI (CHO), supplemented with 10% FCS, 100 U/ml penicillin, and 100 μg/ml streptomycin. Uptake experiments were performed at pH 7.4 using HBSS supplemented with 10 mM HEPES buffer (herein referred to as HBSS+). […]
For all transport measurements, the intracellular amount of substrate was normalized to the total amount of protein of the sample as measured using the bicinchoninic acid assay [49].
For quantification of intracellular substrates, the cell debris were removed by centrifugation at 17,000 x g for 10 min. […]

[1] = cited from earlier work

SMILES: CNC(=C[N+](=O)[O-])NCCSCc1ccc(CN(C)C)o1 [ranitidine, Ranitidine]
- increase in ranitidine uptake, OCT3-overexpressing cells compared to the controls (OCT3; HEK293, 10-600 μM ranitidine, 2 min): up to 2 fold
- OCT3-mediated uptake lower than the OCT1-mediated uptake of ranitidine (OCT3; at clinically relevant concentrations): more than 14 fold
- portion eliminated unchanged via renal excretion ([1]; after oral administration): approximately half
- oral bioavailability [1]: 50–60%
- time to maximal plasma concentrations after administration [1]: two to three
- [I]1, mean unbound ranitidine steady state total Cmax ([1]; highest clinical dose (300 mg)): 2200 nM
- bioavailability in hepatic dysfunction ([1]; increase from 50%): 70%
- volume of distribution ([1]; no reference given): ~1.4 L/kg
